# Columns and labels:
# [1] = target: T1, human FAAH (Fatty Acid Amide Hydrolase) (Homo sapiens, UniProt O00519); test: FAAH enzyme assay on lysate of CHO cells expressing human FAAH; format: biochemical
# T1 construct: The full length FAAH was subcloned into the mammalian expression vector, pcDEF.neo
# T1 sequence (O00519 1-579): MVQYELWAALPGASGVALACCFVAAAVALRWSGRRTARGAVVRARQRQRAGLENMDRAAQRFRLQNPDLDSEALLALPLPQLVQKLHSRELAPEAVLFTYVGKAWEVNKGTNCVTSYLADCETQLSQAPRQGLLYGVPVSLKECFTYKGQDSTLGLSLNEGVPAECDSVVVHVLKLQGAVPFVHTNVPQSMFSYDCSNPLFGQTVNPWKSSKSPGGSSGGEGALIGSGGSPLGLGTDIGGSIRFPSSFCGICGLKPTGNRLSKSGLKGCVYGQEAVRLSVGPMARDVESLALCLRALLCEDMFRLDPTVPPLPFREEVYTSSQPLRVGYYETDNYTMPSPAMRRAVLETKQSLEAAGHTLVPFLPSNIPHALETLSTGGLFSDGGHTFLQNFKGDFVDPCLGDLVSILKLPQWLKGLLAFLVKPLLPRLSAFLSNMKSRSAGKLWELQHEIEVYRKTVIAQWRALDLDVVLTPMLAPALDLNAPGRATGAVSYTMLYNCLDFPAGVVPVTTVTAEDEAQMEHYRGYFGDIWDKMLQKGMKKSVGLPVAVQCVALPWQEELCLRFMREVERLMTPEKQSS
# Description: (§1) To assist in assay development stable cell lines for human, murine and rat full length FAAH were developed. Human FAAH cDNA (Accession No: NM_001441.1) was purchased from Origene (Rockville, Md.). The full length FAAH was subcloned into the mammalian expression vector, pcDEF.neo, using XbaI and EcoRI restriction sites and used for stable cell line generation.
# CHO cells expressing FAAH were used to prepare either crude cell lysate or microsome fractions. To harvest cells, tissue culture media was decanted, the monolayer washed three times with Ca^++Mg^++ free PBS and cells recovered after […] in enzyme free dissociation media (Millipore Corp, Billerica, Mass.). Cells were collected by centrifuging at 2000 rpm for 15 min. and the cell pellet re-suspended with 50 mM HEPES (pH 7.4) containing 1 mM EDTA and the protease inhibitors aprotinin (1 mg/ml) and leupeptin (100 μM). The suspension was sonicated at 4° C. and the cell lysate recovered after centrifuging at 12,000×g (14,600 rpm, SS34 rotor) for 20 min at 4° C. to form a crude pellet of cell debris, nuclei, peroxisomes, lysosomes, and mitochondria; the supernatant or cell lysate was used for FAAH enzyme assay. In some cases, microsomes fractions enriched in FAAH were prepared by centrifuging the cell lysate further at 27,000 rpm (100,000×g) in SW28 rotor for 50 minutes at 4° C. The pellet containing FAAH-enriched microsomes was re-suspend in 50 mM HEPES, (pH 7.4) 1 mM EDTA, and any remaining DNA sheared by passage of material through a 23 gauge needle and aliquots of enzyme were store at −80° C. prior to use.
# (§2) (American Radiolabeled Chemicals; 1 mCi/ml) with FAAH (Life Sciences (1995), 56, 1999-2005 and Journal of Pharmacology and Experimented Therapeutics (1997), 283, 729-734), Analytical. Biochemistry (2003), 318, 270-5. In addition, routine assays were performed monitoring hydrolysis of arachidonyl-7-amino-4-methylcoumarin amide (AAMCA) by following increase in fluorescence upon release of 7-amino 4-methyl coumarin (λEX=355 nm, (λEM=460 nm). Analytical. Biochemistry (2005). 343, 143-51
# (§3) Assays are performed on either cell lysate or microsome fractions prepared as described or in whole cell format employing either the fluorescent substrate AAMCA (Cayman chemical, Ann Arbor, Mich.,) or ^3H-anandmaide ([ETHANOLAMINE-1-3H]American Radiolabeled Chemicals; 1 mCi/ml). The cell lysate or microsome assay is performed in Costar black wall, clear bottom plates by adding FAAH_CF10 (whole cell, cell lysate or microsome) in assay buffer (50 mM Phosphate, pH 8.0, 1 mM EDTA, 200 mM KCl, 0.2% glycerol, 0.1% fatty acid free BSA) to each well, followed by either DMSO or compound and allowed to incubate at 22-25° C. for fifteen minutes. AAMCA substrate was used to achieve a final concentration of 1 μM and reaction allowed to proceed at room temperature for 1-3 hours. Fluorescent release as a measure of FAAH activity was monitored by reading the plate in a CytoFluor Multiplate Reader (Ex: […]). Whole cell assay is conducted with cells harvested after rinsing tissue culture flasks three times with Ca^++Mg^++ free PBS, incubating for 10 min in Enzyme free dissociation media and centrifuging for 5 minutes at 1,000 rpm in table top centrifuge. Cells are resuspended in assay buffer at desired cell number in (4×10^4 cells/assay in 96-well format; 1×10^4 cells/assay in 384-well format) and assayed as described.
# Alternatively, assays are performed using anandamide [ethanolamine 1-^3H] (specific activity of 10 Ci/mmol) diluted with cold anandamide to achieve a final assay concentration of 1 μM anandamide (˜50,000 cpm). Enzyme (CHO cell lysate, brain or liver homogenate) is incubated in assay buffer (50 mM Phosphate, pH 8.0, 1 mM EDTA, 200 mM KCl, 0.2% glycerol, 0.1% fatty acid free BSA) with inhibitor at 25° C. for 30 minutes. The reaction was terminated by addition of 2 volumes of chloroform:methanol (1:1) and mixed by vortexing. […]
# [2] = target: T1, human FAAH (Fatty Acid Amide Hydrolase); test: FAAH whole cell assay, CHO cells expressing human FAAH; format: cell-based
# Description: as §1
# (§4) Murine (accession number NM_010173) and Rat FAAH (accession number NM_024132) was amplified by reverse transcriptase polymerase chain reaction (RT-PCR) from brain cDNA (BD Biosciences, San Jose, Calif.) using primers 1 and 2 or primers 1 and 3 respectively (see Table). The resulting PCR product was ligated into pCR4 TOPO and DNA sequence confirmed. The full length murine FAAH was subcloned into the mammalian expression vector, pcDEFneo using either EcoRI (murine) or KpnI and EcoRI (rat) restriction sites. Chinese hamster ovary cells (CHO) were transfected following manufacturers protocol (AMAXA). Forty eight hours post transfection, cells were trypsinized and transferred to 96 well plates in Iscove's DMEM media supplemented with 2 mM Glutamine, 10% fetal calf serum, 1 mg/ml geneticin and HT Supplement (0.1 mM sodium hypoxanthine, 0.016 mM thymidine) in order to isolate single clones. Following selection in geneticin, individual clones were selected and FAAH activity was assessed using a whole cell fluorescent anandamide assay, modified from Ramarao et al (2005). Following removal of tissue culture media cells were dislodged following addition of Cellstripper (Mediatech, Inc. Manassas, Va.) and transferred to 96 well black clear bottom assay plate, centrifuged at 1,000 rpm for 3 mins and media removed and replaced with assay buffer (50 mM Iris pH8.0, 1 mM EDTA, 0.1% fatty acid free BSA). The reaction was initiated by addition of fluorescent substrate, AMC Arachidonoyl Amide (Cayman Chemical, Ann Arbor, Mich.) to 1 μM and reaction allowed to proceed for 2 hours at room temperature. Release of fluorescence was monitored in a CytoFluor Multiplate Reader. Cells expressing the highest amount of FAAH activity were selected for study with FAAH inhibitors.
# as §2, §3
# [3] = target: T2, rat FAAH (Fatty Acid Amide Hydrolase) (Rattus norvegicus, UniProt P97612); test: FAAH whole cell assay, CHO cells expressing rat FAAH; format: cell-based
# T2 sequence (P97612 1-579): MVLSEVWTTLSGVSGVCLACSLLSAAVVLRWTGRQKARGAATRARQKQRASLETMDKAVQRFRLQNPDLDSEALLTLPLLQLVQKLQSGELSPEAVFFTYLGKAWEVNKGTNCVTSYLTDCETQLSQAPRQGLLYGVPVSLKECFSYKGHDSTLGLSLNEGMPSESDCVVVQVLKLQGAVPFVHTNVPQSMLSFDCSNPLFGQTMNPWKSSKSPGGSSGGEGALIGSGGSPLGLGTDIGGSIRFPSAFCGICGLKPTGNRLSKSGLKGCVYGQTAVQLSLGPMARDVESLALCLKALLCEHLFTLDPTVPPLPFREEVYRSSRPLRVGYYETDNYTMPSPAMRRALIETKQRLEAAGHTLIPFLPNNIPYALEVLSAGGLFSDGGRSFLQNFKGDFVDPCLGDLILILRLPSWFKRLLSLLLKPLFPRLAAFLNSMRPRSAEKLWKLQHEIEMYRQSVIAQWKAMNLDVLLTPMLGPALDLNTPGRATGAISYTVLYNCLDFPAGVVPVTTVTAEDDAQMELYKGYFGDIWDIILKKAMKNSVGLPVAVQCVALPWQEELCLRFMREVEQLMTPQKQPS
# Description: as §1, §4, §2, §3
smiles,measurement,setting,value
"CC(C)(O)c1ccc(-c2nc(Cc3ccc(F)cc3)oc2Sc2ccc(Cl)cn2)cn1 [Ex 123, 2-(5-{5-[(5-Chloropyridin-2-yl)sulfanyl]-2-(4-fluorobenzyl)-1,3-oxazol-4-yl}pyridin-2-yl)propan-2-ol]",IC50,[1],74 nM
same,IC50,[2],510 nM
same,IC50,[3],286 nM
"COC(=O)c1cnc(-c2nc(-c3ccc(F)cc3)oc2Sc2ccc(Cl)cn2)nc1 [Ex 124, Methyl 2-{5-[(5-chloropyridin-2-yl)sulfanyl]-2-(4-fluorophenyl)-1,3-oxazol-4-yl}pyrimidine-5-carboxylate]",IC50,[1],11 nM
same,IC50,[2],98 nM
same,IC50,[3],16 nM
CC(C)(O)c1ccc(-c2nc(-c3ccccn3)oc2Sc2ccc(F)cn2)cn1 [Ex 125],IC50,[1],93 nM
same,IC50,[2],2290 nM
same,IC50,[3],680 nM
CC(C)(O)c1ccc(-c2nc(-c3ccccn3)oc2Sc2ncc(Cl)cn2)cn1 [Ex 131],IC50,[1],140 nM
same,IC50,[2],1120 nM
same,IC50,[3],782 nM

# — US20110021531A1, “OXAZOLE DERIVATIVES USEFUL AS INHIBITORS OF FAAH” (priority 2009, published 2011)
